Test results reported in patent publication US12410208B2, “(2-acetamidyl)thio-beta-D-galactopyranoside derivatives” (Idorsia Pharmaceuticals Ltd, priority 2020, dated 2025).
Where two headings read alike, the source gives them in different places.

How the values were obtained:
[1] = molecular target: biotinylated human Gal-3 (hGal-3) (Homo sapiens, UniProt P17931); experiment: Competitive binding assay: biotinylated hGal-3 binding to microplate-adsorbed asialofetuin (ASF), spectrophotometric
In short: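 Serially diluted compounds competed with asialofetuin on the plate for biotinylated human Gal-3 during a 3 h incubation at 4° C. Streptavidin-peroxidase with ABTS gave the spectrophotometric signal. IC50 values were averaged over repeat runs.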

human Gal-1 (hGal-1) = human Gal-1 (hGal-1) (Homo sapiens, UniProt P09382); experiment: Competitive binding assay: biotinylated hGal-1 binding to microplate-adsorbed asialofetuin (ASF), spectrophotometric; details: hGal-1 binding to asialofetuin; Table 15; R and S epimers of selected Examples also listed; read-out: IC50 (Galectin-1 inhibition)
Sequence of human Gal-1 (hGal-1) (P09382 whole entry): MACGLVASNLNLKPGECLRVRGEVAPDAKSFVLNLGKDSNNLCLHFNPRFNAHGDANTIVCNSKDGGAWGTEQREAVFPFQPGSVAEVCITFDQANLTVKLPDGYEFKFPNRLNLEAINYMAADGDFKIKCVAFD
In short: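 Spectrophotometric competition readout with ABTS after streptavidin-peroxidase (80 ng/mL, 1 h, 4 °C) detection of bound biotinylated hGal-1.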

[2] = Table 6, hGal-3, read-out: IC50 (Gal-3 inhibition)
[3] = Table 13, hGal-3, read-out: IC50 (Gal-3 inhibition)
[4] = Gal-3 inhibition, Table 5, read-out: IC50
[5] = Table 12, hGal-3, read-out: IC50 (Gal-3 inhibition)

Sequence of biotinylated human Gal-3 (hGal-3) (P17931 whole entry): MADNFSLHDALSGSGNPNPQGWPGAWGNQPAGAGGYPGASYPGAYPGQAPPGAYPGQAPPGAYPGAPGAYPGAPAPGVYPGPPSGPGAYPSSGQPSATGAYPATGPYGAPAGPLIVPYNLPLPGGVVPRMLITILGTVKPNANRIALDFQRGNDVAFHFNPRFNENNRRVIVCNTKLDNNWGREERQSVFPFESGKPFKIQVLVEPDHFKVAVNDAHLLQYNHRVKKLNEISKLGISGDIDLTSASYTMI

| Compound | IC50 (human Gal-1 (hGal-1)) [nM] | also measured |
| --- | --- | --- |
| CN(Cc1ccccc1)C(=O)C(S[C@@H]1O[C@H](CO)[C@H](O)[C@H](n2cc(-c3cc(F)c(F)c(F)c3)nn2)[C@H]1O)C(C)(C)O (stereo partly drawn) [Example 2.31.207., N-Benzyl-2-(((2S,3R,4S,5R,6R)-3,5-dihydroxy-6-(hydroxymethyl)-4-(4-(3,4,5-trifluorophenyl)-1H-1,2,3-triazol-1-yl)tetrahydro-2H-pyran-2-yl)thio)-3-hydroxy-N,3-dimethylbutanamide] | 570 | IC50 [1, 2]: 60 nM |
| 1-(4,4-Difluoropiperidin-1-yl)-2-(4-hydroxy-2,2-dimethyltetrahydro-2H-pyran-4-yl)-2-(((2S,3R,4S,5R,6R)-5-hydroxy-6-(hydroxymethyl)-3-methoxy-4-(4-(3,4,5-trifluorophenyl)-1H-1,2,3-triazol-1-yl)tetrahydro-2H-pyran-2-yl)thio)ethan-1-one [Example 2.43.226.I.] | 460 | IC50 [1, 3]: 250 nM |
| CO[C@@H]1[C@@H](n2cc(-c3cc(F)c(F)c(F)c3)nn2)[C@@H](O)[C@@H](CO)O[C@H]1S[C@H](C(=O)N1CCC(F)(F)CC1)C1(O)CCC2(CCCC2)CC1 [Example 2.71.226S.I., (S)-1-(4,4-Difluoropiperidin-1-yl)-2-(((2S,3R,4S,5R,6R)-5-hydroxy-6-(hydroxymethyl)-3-methoxy-4-(4-(3,4,5-trifluorophenyl)-1H-1,2,3-triazol-1-yl)tetrahydro-2H-pyran-2-yl)thio)-2-(8-hydroxyspiro[4.5]decan-8-yl)ethan-1-one] | 270 | IC50 [1, 3]: 100 nM |
| O=C(C(S[C@@H]1O[C@H](CO)[C@H](O)[C@H](n2cc(-c3cc(F)c(F)c(F)c3)nn2)[C@H]1O)C1(O)CC(F)(F)C1)N1CCC1 (stereo partly drawn) [Example 2.33.206., 1-(Azetidin-1-yl)-2-(3,3-difluoro-1-hydroxycyclobutyl)-2-(((2S,3R,4S,5R,6R)-3,5-dihydroxy-6-(hydroxymethyl)-4-(4-(3,4,5-trifluorophenyl)-1H-1,2,3-triazol-1-yl)tetrahydro-2H-pyran-2-yl)thio)ethan-1-one] | 1710 | IC50 [1, 4]: 580 nM |
| CN(CC(C)(C)C)C(=O)C(S[C@@H]1O[C@H](CO)[C@H](O)[C@H](n2cc(-c3cc(F)c(F)c(F)c3)nn2)[C@H]1O)C(C)(C)O (stereo partly drawn) [Example 2.31.228., 2-(((2S,3R,4S,5R,6R)-3,5-Dihydroxy-6-(hydroxymethyl)-4-(4-(3,4,5-trifluorophenyl)-1H-1,2,3-triazol-1-yl)tetrahydro-2H-pyran-2-yl)thio)-3-hydroxy-N,3-dimethyl-N-neopentylbutanamide] | 1650 | IC50 [1, 2]: 670 nM |
| CC1CCN1C(=O)C(S[C@@H]1O[C@H](CO)[C@H](O)[C@H](n2cc(-c3cc(F)c(F)c(F)c3)nn2)[C@H]1O)C(C)(C)O (stereo partly drawn) [Example 2.31.204., 2-(((2S,3R,4S,5R,6R)-3,5-Dihydroxy-6-(hydroxymethyl)-4-(4-(3,4,5-trifluorophenyl)-1H-1,2,3-triazol-1-yl)tetrahydro-2H-pyran-2-yl)thio)-3-hydroxy-3-methyl-1-(2-methylazetidin-1-yl)butan-1-one] | 2800 | IC50 ([1]; Gal-3 inhibition, Table 3, read-out: IC50): 140 nM |

These reach a lower IC50 (human Gal-1 (hGal-1)). Values come first.

| IC50 (human Gal-1 (hGal-1)) [nM] | Compound | also measured |
| --- | --- | --- |
| 30 | CCN(C)C(=O)[C@@H](S[C@@H]1O[C@H](CO)[C@H](O)[C@H](n2cc(-c3cc(F)c(F)c(F)c3)nn2)[C@H]1O)C1(O)CCN(S(=O)(=O)C2CC2)CC1 [Example 2.51.203S., (S)-2-(1-(Cyclopropylsulfonyl)-4-hydroxypiperidin-4-yl)-2-(((2S,3R,4S,5R,6R)-3,5-dihydroxy-6-(hydroxymethyl)-4-(4-(3,4,5-trifluorophenyl)-1H-1,2,3-triazol-1-yl)tetrahydro-2H-pyran-2-yl)thio)-N-ethyl-N-methylacetamide [1,3-di-deoxy-1-((2-(1-(cyclopropylsulfonyl)-4-hydroxypiperidin-4-yl)-N-ethyl-N-methylacetamide)-(S)-thio)-3-[4-(3,4,5-trifluorophenyl)-1H-1,2,3-triazol-1-yl]-β-D-galactopyranoside]] | IC50 ([1]; Table 8, hGal-3, read-out: IC50 (Gal-3 inhibition)): 20 nM |
| 90 | CN(C(=O)C(S[C@@H]1O[C@H](CO)[C@H](O)[C@H](n2cc(-c3cc(F)c(F)c(F)c3)nn2)[C@H]1O)C1(O)CCOCC1)C1COC1 (stereo partly drawn) [Example 2.41.235., 2-(((2S,3R,4S,5R,6R)-3,5-Dihydroxy-6-(hydroxymethyl)-4-(4-(3,4,5-trifluorophenyl)-1H-1,2,3-triazol-1-yl)tetrahydro-2H-pyran-2-yl)thio)-2-(4-hydroxytetrahydro-2H-pyran-4-yl)-N-methyl-N-(oxetan-3-yl)acetamide] | IC50 [1, 4]: 60 nM |
| 70 | CO[C@@H]1[C@@H](n2cc(-c3cc(F)c(F)c(F)c3)nn2)[C@@H](O)[C@@H](CO)O[C@H]1S[C@H](C(=O)N(C)CC(C)(C)F)C1(O)CCC(F)(F)CC1 [Example 2.44.222S.I., (S)-2-(4,4-Difluoro-1-hydroxycyclohexyl)-N-(2-fluoro-2-methylpropyl)-2-(((2S,3R,4S,5R,6R)-5-hydroxy-6-(hydroxymethyl)-3-methoxy-4-(4-(3,4,5-trifluorophenyl)-1H-1,2,3-triazol-1-yl)tetrahydro-2H-pyran-2-yl)thio)-N-methylacetamide] | IC50 [1, 5]: 10 nM |
| 20 | CCN(CC1CC1)C(=O)C(S[C@@H]1O[C@H](CO)[C@H](O)[C@H](n2cc(-c3cc(F)c(F)c(F)c3)nn2)[C@H]1OC)C1(O)CCC(F)(F)CC1 (some centres unmarked) [Example 2.44.239.I.] | IC50 ([1]; Table 10, hGal-3, read-out: IC50 (Gal-3 inhibition)): 40 nM |
| 70 | CO[C@@H]1[C@@H](n2cc(-c3cc(F)c(F)c(F)c3)nn2)[C@@H](O)[C@@H](CO)O[C@H]1S[C@H](C(=O)N1CCC(F)(F)CC1)C1(O)CCC(F)(F)CC1 [Example 2.44.226S.I., (S)-2-(4,4-difluoro-1-hydroxycyclohexyl)-1-(4,4-difluoropiperidin-1-yl)-2-(((2S,3R,4S,5R,6R)-5-hydroxy-6-(hydroxymethyl)-3-methoxy-4-(4-(3,4,5-trifluorophenyl)-1H-1,2,3-triazol-1-yl)tetrahydro-2H-pyran-2-yl)thio)ethan-1-one] | IC50 [1, 5]: 50 nM |
| 250 | CO[C@@H]1[C@@H](n2cc(-c3cc(F)c(F)c(F)c3)nn2)[C@@H](O)[C@@H](CO)O[C@H]1SC(C(=O)N(C)C)C1(O)CCC(F)(F)CC1 (stereo partly drawn) [Example 2.44.201.I., 2-(4,4-Difluoro-1-hydroxycyclohexyl)-2-(((2S,3R,4S,5R,6R)-5-hydroxy-6-(hydroxymethyl)-3-methoxy-4-(4-(3,4,5-trifluorophenyl)-1H-1,2,3-triazol-1-yl)tetrahydro-2H-pyran-2-yl)thio)-N,N-dimethylacetamide] | IC50 [1, 5]: 60 nM |
| 70 | CN(CC1CC1)C(=O)[C@@H](S[C@@H]1O[C@H](CO)[C@H](O)[C@H](n2cc(-c3cc(F)c(F)c(F)c3)nn2)[C@H]1O)C1(O)CCC1 [Example 2.34.218S., (S)-N-(Cyclopropylmethyl)-2-(((2S,3R,4S,5R,6R)-3,5-dihydroxy-6-(hydroxymethyl)-4-(4-(3,4,5-trifluorophenyl)-1H-1,2,3-triazol-1-yl)tetrahydro-2H-pyran-2-yl)thio)-2-(1-hydroxycyclobutyl)-N-methylacetamide] | IC50 [1, 4]: 60 nM |
